Experimental data taken from BigSolDB 2.1.

Nc1cccc(C(=O)O)c1
solubility (mole fraction)
Conditions	283.15 K	288.15 K	293.15 K	298.15 K	303.15 K	308.15 K	313.15 K	318.15 K	323.15 K
in 1,4-dioxane	–	0.0319	0.035	0.0394	0.042	0.0469	0.0549	0.0627	0.0709
in acetone	0.0289	0.0295	0.0304	0.0325	0.0375	0.0414	0.0455	0.052	0.0601
in acetonitrile	0.00192	0.00225	0.00264	0.00313	0.00358	0.00452	0.00561	0.00664	0.00765
in ethanol	0.00821	0.00955	0.0107	0.0117	0.0137	0.0154	0.0182	0.0218	0.0241
in isobutanol	0.00506	0.00542	0.00599	0.00683	0.00796	0.00946	0.0113	0.0131	0.0158
in isopropanol	0.00638	0.00712	0.00801	0.00943	0.0112	0.0135	0.0165	0.0204	0.023
in isopropyl acetate	0.00459	0.00495	0.00526	0.00591	0.00674	0.00765	0.00917	0.0113	0.0135
in methanol	0.012	0.0128	0.0139	0.0145	0.0166	0.0187	0.0219	0.0254	0.0296
in methyl acetate	0.00731	0.00776	0.00841	0.00918	0.0108	0.0128	0.0149	0.0173	0.0203
in n-butanol	0.00532	0.00595	0.00682	0.00768	0.00934	0.0117	0.0134	0.0156	0.0175
in n-propanol	0.00568	0.00675	0.00804	0.00911	0.0107	0.0126	0.014	0.016	0.019
in water	0.000506	0.000628	0.000725	0.000804	0.000976	0.00119	0.00135	0.00153	0.00184
